Patent US10683286B2, “Furazan-3-carboxylic acid derivatives and use thereof in treatment of cancer” (FREIE UNIVERSITAET BERLIN, priority 2016, dated 2020)

Legend:
[1] = molecular target: full length human STAT3 protein (Homo sapiens, UniProt P40763); test: FP specificity assay, STAT3; type: binding; settings: concentrations up to 1 mM
Source text: Cell Lines and Culture Condition

[2] = molecular target: T1, protein tyrosine phosphatase SHP2 (Homo sapiens, UniProt Q06124); test: SHP2 inhibition (specificity); type: biochemical; settings: concentrations up to 1 mM
T1 sequence (Q06124 1-593): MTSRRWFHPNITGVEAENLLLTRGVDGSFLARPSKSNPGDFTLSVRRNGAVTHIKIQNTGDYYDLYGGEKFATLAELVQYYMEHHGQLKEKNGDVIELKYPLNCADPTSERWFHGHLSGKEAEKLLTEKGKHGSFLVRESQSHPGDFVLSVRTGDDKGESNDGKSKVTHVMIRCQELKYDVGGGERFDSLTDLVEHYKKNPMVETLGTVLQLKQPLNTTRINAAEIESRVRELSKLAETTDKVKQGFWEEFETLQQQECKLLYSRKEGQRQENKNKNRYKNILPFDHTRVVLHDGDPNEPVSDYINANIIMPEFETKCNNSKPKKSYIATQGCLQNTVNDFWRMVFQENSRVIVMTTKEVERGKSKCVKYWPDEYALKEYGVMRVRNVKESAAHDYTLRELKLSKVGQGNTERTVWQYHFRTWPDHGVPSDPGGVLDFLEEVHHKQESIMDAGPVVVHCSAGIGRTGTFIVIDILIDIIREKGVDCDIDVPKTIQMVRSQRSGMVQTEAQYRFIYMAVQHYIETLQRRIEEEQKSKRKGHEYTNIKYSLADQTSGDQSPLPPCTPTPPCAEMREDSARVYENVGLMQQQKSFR

[3] = tested on: phosphorylated STAT5 dimers; test: ELISA-based STAT5 transcription factor assay of (STAT5)2-DNA complexes; type: biochemical, murine; settings: cell-free, nuclear extract incubated 1 h at room temperature
Protocol: As an additional confirmation for the mode of action of the STAT5-binding fragments, we finally investigated their potential to interfere directly with the binding of phosphorylated STAT5 dimers to the target DNA sequences of the transcription factor. […] (FIGS. 6C, D) Nuclear extracts and cytoplasmic extracts were prepared from BaF3 FLT3-ITD cells using the Nuclear Extraction kit (Active Motif, Carlsbad, Calif., USA) according to the manufacturer's protocol. STAT5 activity was determined in nuclear protein extracts (20 μg) by the TransAM STATs family kits from Active Motif (Carlsbad, Calif.). All assays were performed following the manufactory instruction after the nuclear protein extraction.

STAT5 dimer = test: Gel shift assay (EMSA) of STAT5 DNA binding; type: biochemical, murine; settings: BaF3/FLT3-ITD nuclear extract
Protocol: Nuclear extracts and cytoplasmic extracts were prepared from BaF3 FLT3-ITD cells using the Nuclear Extraction kit (Active Motif, Carlsbad, Calif., USA) according to the manufacturer's protocol.
A gel shift assay was conducted using a double-stranded, biotin-labeled oligonucleotide probe containing the consensus binding site for STAT5 (sense strand, 5′-[…]-3′), using the Gelshift Chemiluminescent EMSA kit (Active Motif) according to the manufacturer's protocol. Protein-DNA complexes were resolved on a nondenaturing polyacrylamide gel, transferred to a positively charged nylon membrane, and cross-linked to a membrane using the UV-light cross-linker. After blocking, the membrane was incubated with blocking buffer containing streptavidin conjugated to HRP. After washing, protein-DNA complexes were detected using a chemi-luminescent substrate (Active Motif).

STAT5b-SH2 domain = molecular target: T2, STAT5b-SH2 domain (Homo sapiens, UniProt P51692); test: Competitive fluorescence polarization (FP) assay, STAT5b-SH2 domain
T2 sequence (P51692 136-703): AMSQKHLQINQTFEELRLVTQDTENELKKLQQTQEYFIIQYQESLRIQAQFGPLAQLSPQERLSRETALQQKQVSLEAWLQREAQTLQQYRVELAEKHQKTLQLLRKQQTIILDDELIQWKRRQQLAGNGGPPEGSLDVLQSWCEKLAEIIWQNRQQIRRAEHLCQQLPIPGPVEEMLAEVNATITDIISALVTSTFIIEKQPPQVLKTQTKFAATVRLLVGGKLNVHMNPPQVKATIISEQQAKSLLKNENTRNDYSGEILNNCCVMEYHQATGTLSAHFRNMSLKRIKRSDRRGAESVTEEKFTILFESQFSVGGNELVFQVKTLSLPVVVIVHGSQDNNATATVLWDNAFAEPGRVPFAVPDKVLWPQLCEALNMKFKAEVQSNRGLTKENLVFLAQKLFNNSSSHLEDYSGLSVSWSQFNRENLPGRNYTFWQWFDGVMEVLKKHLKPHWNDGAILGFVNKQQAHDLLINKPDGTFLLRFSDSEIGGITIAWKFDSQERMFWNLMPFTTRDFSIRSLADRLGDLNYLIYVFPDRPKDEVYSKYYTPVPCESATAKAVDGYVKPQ
Protocol: The ChemBioNet fragment collection composed in accordance with the substructure composition of the World Drug Index (WDI) was screened both for enhancing and inhibiting fragments of the phosphopeptide-STAT5 interaction.
The clone for Stat5b expression was kindly provided by Thorsten Berg (MPI, Martinsried). Expression of that truncated version of Stat5b (aa 136-703) cloned into a modified pQE70, with N-terminal MBP-tag and C-terminal His-tag was conducted on autoinduction medium (overnight express/Novagen). Cells were grown to an optical density (O.D.) of 0.3 at 37° C., then the temperature was reduced to 20° C. for further 48 h of expression. […] The protein was purified by Ni-chelating chromatography followed by gel filtration (Superdex 200/10 mM HEPES pH 7.8, 100 mM NaCl, 1 mM EDTA, 1 mM DTT, 10% glycerol). A yield of 15 mg MBP-Stat5b-His per liter of culture was obtained and aliquots (200 μl of 3.2 mg/ml) were quick-frozen and stored at −80° C., ready for use.
17000 compounds from the (FMP) ChemBioNet library were tested in a competitive-based fluorescence polarization (FP) assay to investigate the ability of compounds to bind to STAT5b-SH2 domain by displacing respective fluorophore-labeled peptides (5-carboxyfluorescein-GY (PO3H2) LSLPPW-NH2). The peptide purity was >95% and the screening were performed at room temperature. The final concentration of buffer components used was 10 mM HEPES (pH 7.5), 1 mM EDTA, 0.1% Igepal CA-630, 50 mM NaCl, and 5% DMSO. The final concentration of protein used was at 65 nM which correspond to the dissociation constants (Kd) for the individual protein-peptide interactions in assay buffer. The protein was first added to the black 384 well plate (Corning 3676) followed by test compounds and fluorophore-labeled peptide. The plates were centrifuged, and measured using Safire^2 well plate reader (Tecan, Crailsheim, Germany) after 15 minutes incubation at room temperature. […] For the analysis of the data GraphPad Prism 5 was used. Ligand efficiencies (LE) were calculated using equation derived as followed. LE=−ΔG°/HA with (ΔG°) is the standard free energy of binding in KJ and HA is the number of non-hydrogen atoms.

Sequence of full length human STAT3 protein (P40763 whole entry): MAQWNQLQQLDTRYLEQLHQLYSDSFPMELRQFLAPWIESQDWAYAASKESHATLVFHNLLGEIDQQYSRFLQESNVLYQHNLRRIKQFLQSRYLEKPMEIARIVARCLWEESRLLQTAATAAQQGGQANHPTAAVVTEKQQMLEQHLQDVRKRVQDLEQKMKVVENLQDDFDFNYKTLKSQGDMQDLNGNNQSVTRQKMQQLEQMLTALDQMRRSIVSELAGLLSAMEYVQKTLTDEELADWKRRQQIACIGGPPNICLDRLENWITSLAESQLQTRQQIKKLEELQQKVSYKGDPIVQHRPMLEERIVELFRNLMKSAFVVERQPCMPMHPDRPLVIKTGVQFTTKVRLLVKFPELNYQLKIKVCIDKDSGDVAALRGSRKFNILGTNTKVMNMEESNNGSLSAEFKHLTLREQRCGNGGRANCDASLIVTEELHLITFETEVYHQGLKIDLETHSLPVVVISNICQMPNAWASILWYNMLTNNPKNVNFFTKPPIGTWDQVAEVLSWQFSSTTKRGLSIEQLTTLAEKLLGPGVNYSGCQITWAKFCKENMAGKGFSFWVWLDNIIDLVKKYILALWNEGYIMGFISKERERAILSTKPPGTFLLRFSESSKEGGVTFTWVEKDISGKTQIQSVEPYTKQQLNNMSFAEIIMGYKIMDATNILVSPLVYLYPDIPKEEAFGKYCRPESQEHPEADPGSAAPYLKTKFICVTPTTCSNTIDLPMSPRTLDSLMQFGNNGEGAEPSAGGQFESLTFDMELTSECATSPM

## O=C(O)c1nonc1NCn1cnnn1 [Compound 3, 4-((1H-Tetrazol-1-yl)-methylamino)-furazan-3-carboxylic Acid]
[1]
  binding to the SH2 domain of STAT3: no binding
[2]
  inhibition of SHP2: No inhibition
[3]
  inhibition of protein-dimer-DNA complex formation: more potent inhibitor than compounds (15) and (6)
STAT5 dimer
  STAT5 dimer DNA-binding activity: inhibits
STAT5b-SH2 domain
  Ki: 1400 ± 500 nM
  ligand efficiency: 2.23 kJ/mol per non-hydrogen atom
STAT5b-SH2 domain; Table 1, ligand efficiency
  LE: 2.23 kJ/mol* atom#
